From US20210378193A1, “HAPLOID EMBRYOGENESIS” (STICHTING WAGENINGEN RESEARCH, priority 2013, published 2021)

What was measured:
[1] = test system: BABY BOOM (BBM); LEAFY COTYLEDON1 (LEC1); LEC2, and FUSCA3; assay: semi-quantitative RT-PCR of embryo-expressed genes in B. napus microspore culture; format: cell-based, Brassica napus; conditions: TSA-treated microspore cultures, regardless of culture temperature
Procedure: Total RNA isolation and on-column DNase digestion were performed using the InviTrap Spin Plant RNA Mini Kit (Invitek) according to the manufacturer's instructions. For semi-quantitative RT-PCR, 250 ng of total RNA was used for first-strand cDNA synthesis with the Taqman Reverse Transcription Reagents Kit (Applied Biosystems). The cycling parameters were: one cycle at 98° C. for 30 s, 30 cycles comprising 98° C. for 5 s, 60° C. for 30 s, followed by 72° C. for 1 min. The semi-quantitative RT-PCR primers are from Malik et al. (2007) Plant Physiol. 144: 134-154. The quantitative RT-PCR primers for microarray validation were designed based on oligonucleotide probes from Affymetrix GeneChip® Brassica Exon 1.0ST Array (see Malik et al. (2007) supra and Love, C. G., et al. (2010) PloS one 5: e12812). The Arabidopsis hda T-DNA insertion lines were genotyped using the PCR primers. […]
The cell clusters that are formed in heat-stressed, TSA-treated cultures resemble those found in control cultures that are only exposed to a heat-stress treatment. […] Semi-quantitative RT-PCR and GFP reporter lines were used to determine whether the different types of sporophytic structures that develop in control and TSA-treated cultures are embryogenic. […]

[2] = test system: Arabidopsis immature male gametophytes; assay: Arabidopsis anther culture, sporophytic division of immature male gametophytes; format: cell-based; conditions: Col0 anthers, 25° C., 0.5 μM TSA, five days; never observed without TSA
Procedure: Arabidopsis flower buds at stage 11 were collected for anther culture. Flower buds were surface sterilized in 2% bleach for 10 minutes, then rinsed three times in distilled water. The anthers (without filament) were placed in a liquid NLN-13 medium containing 0.5 μM TSA or the same volume of DMSO and then cut in half transversely in the medium to release the microspores. The cultures were placed at 25° C. for 20 hours in the dark. The medium was then replaced by fresh NLN-13 medium by pipetting gently, and the cultures incubated at 25° C. for an additional four days. Free and loosely attached microspores were collected and stained with DAPI. Arabidopsis hda T-DNA insertion lines were obtained from Nottingham Arabidopsis Stock Centre. At least 300 microspores per sample were counted.
Multicellular structures that resemble the Type II and IV structures seen in Brassica microspore culture are produced when stage 11 Arabidopsis anthers are cultured at 25° C. with 0.5 μM TSA. […] TSA induces embryogenic cell divisions in Arabidopsis immature male gametophytes. Panels show: (A)=DAPI stained anther in TSA-treated culture showing multicellular, sporophytic structures derived from immature male gametophytes (arrow). […] (B)=cleared anther from a control culture showing lack of sporophytic cell proliferation. […]

[3] = test system: Brassica oleracea Gongylodes group (kohlrabi) microspores; assay: embryo production in Brassica oleracea Gongylodes group (kohlrabi) microspore culture; format: cell-based
Source text: Microspores of different developmental stages were isolated by a standard method ([…] 1982, Journal of Plant Physiology 105:427-434).

How did the “expression of BBM, LEC1, LEC2 and FUSCA3” value [1] turn out when CC(/C=C/C(=O)NO)=C\[C@@H](C)C(=O)c1ccc(N(C)C)cc1 [TSA, trichostatin A] was run?
Its value is “enhanced”.

What about the “percentage of immature male gametophytes that divided sporophytically” value [2] of the same compound?
The value was 0-5%.

And the “general embryo production, sum of experiments” value ([3]; 0.5 μM TSA, not heat-shocked (25° C.), control sum 204)?
Its value is 841.

And the “large embryos in a recalcitrant (non-responsive) genotype” value ([3]; 18 days, not in the control)?
Its value is “Large embryos are present”.

And the “embryogenic clusters in a recalcitrant (non-responsive) genotype” value ([3]; early time point, not in the control culture)?
The value was “found at an early time point”.
